Results published in US10160812B2, “Bispecific HER2 antibodies” (MedImmune, LLC, priority 2014, dated 2018).

What was measured:
[1] = test system: ST455B model; test: PDX tumor model (triple-negative, HER2 IHC 1+); type: in vivo, Athymic nude mice; conditions: Bs2-4T at 3 mg/kg
Method: All mouse experiments were carried out in compliance with the guidelines published by the Association for Assessment and Accreditation of Laboratory Animal Care (AAALAC) and protocols approved by the MedImmune Institutional Animal Care and Use Committee. Athymic nude mice between 4-8 weeks of age were used in the studies. In subcutaneous CBX models, animals were injected unilaterally on the right flank with tumor cells harvested from culture at a specific passage lot. In orthotopic CBX models, xenografts were established by injecting 5×10^6 cells per mouse (suspended in 50% matrigel) into the mammary fat pad on the right flank of animals. In PDX models, animals are implanted unilaterally on the flank with tumor fragments harvested from host animals each implanted from a specific passage lot. Pre-study tumor volumes were recorded for each experiment beginning approximately one week prior to its estimated start date. When tumors reach the appropriate tumor volume initiation (TVI) range (typically 150-250 mm^3), animals are randomized into treatment and control groups and dosing initiated. […] Animals were observed daily and tumor dimensions and body weights were measured and recorded twice weekly. Tumor volumes are calculated using the following formula: tumor volume=π÷6 (length×width^2). […]

[2] = test system: MDA-MB-361 cells; type: cell-based, human; conditions: MDA-MB-361, 10 pM, relative to untreated control
Method: MDA-MB-361 cells were cultured under standard tissue culture conditions in Leibovitz's L-15 medium supplemented with 20% FBS. Cells were harvested by trypsinization, washed twice with PBS, and resuspended to 30,000 cells per mL in stem cell medium (SCM: DMEM/F12 supplemented with 20 ng/mL EGF, 10 ng/mL bFGF, 5 mg/mL insulin, 0.4% BSA and 1% knock-out serum replacement). […] At the end of treatment, the primary spheres were harvested, dissociated using 0.05% trypsin and resuspended at a density of 30,000 cells/mL in SCM containing the same antibody treatment as the primary sphere culture. Cells were then plated in triplicate into 96-well ultra-low attachment plates and incubated for 4 days. Sphere cell viability was determined using Cell Titer Glo according to manufacturer's instructions. Data are presented as fold of CSC sphere formation relative to the untreated control.

[3] = test system: RT-112; test: In vitro cytotoxic activity (Cell Titer Glo); type: cell-based, human; conditions: RT-112, 3 to 4 days
Method: Briefly, cells were harvested, resuspended, and plated in serum-containing culture media at a density of 5,000 to 20,000 per well (depending on the growth kinetics of each cell line) of 96-well plates in a volume of 100 μL. A 2× concentration of each dose of antibody or ADC to be tested was prepared by diluting the test articles in culture medium. One hundred microliters of each test article was added to cells in triplicate such that the final dose curve ranged from 5 nM down to 0.08 pM in a stepwise 1:4 serial dilution series. The treated cells were incubated at 37° C./5% CO2 for 3 to 4 days, depending on the growth kinetics of each particular cell line. Cell viability was determined using Cell Titer Glo according to manufacturer's instructions. Data are analyzed by the GraphPad Prism software and presented as percent growth inhibition relative to the untreated control.

## T-DM1 [reference compound]
[1]
  in vivo activity (tumor growth): no activity
[2]
  inhibition of CSC sphere formation: no activity
[3]
  In vitro potency (EC50 in pM): Inactive
